Among the data in PMC9329268 (Angewandte Chemie (International ed. in English), 2022) are MIC, IC50 and solubility values, retold here.

One may read the MIC as the least concentration at which growth counts as inhibited. Read a low MIC as inhibition by little substance. For orientation: IC50 means the concentration that gives 50% inhibition. Broadly, the solubility is how much of the substance goes into solution per volume. A high value points to a readily soluble substance.

The test system of data set [1] is Streptococcus salivarius (ATCC7752). Description: Antibacterial activity. It counts as cell-based.
The target in another data set is T1, AglH (Methanocaldococcus jannaschii, UniProt Q58513).
T1 sequence (Q58513 1-301): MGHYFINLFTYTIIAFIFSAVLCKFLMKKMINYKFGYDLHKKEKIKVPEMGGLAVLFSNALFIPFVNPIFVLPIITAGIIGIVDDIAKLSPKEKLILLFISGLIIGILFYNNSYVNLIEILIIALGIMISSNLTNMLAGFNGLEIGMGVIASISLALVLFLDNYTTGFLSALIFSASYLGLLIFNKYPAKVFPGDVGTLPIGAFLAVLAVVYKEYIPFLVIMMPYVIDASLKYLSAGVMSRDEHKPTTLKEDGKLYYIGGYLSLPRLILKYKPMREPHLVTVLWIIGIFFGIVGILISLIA
In kind it is biochemical. To be noted: read-out: IC50 AglH; Methanococcus jannaschii enzyme; n = 3.

The target in data set [2] is T2, human dolichyl-phosphate N-acetylglucosaminephosphotransferase 1 (DPAGT1) (Homo sapiens, UniProt Q9H3H5).
T2 sequence (Q9H3H5 1-408): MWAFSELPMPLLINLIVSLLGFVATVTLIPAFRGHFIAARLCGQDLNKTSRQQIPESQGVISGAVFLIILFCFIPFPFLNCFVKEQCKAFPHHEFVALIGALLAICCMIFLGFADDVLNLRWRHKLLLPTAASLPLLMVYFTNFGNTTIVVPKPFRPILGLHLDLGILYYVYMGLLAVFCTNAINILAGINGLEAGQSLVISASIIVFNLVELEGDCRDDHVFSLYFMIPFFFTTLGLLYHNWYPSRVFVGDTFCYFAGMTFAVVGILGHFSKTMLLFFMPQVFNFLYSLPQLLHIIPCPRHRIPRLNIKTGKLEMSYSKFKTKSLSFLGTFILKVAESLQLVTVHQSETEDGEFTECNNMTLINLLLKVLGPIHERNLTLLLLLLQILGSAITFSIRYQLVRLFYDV
It counts as biochemical. As to conditions: read-out: IC50 DPAGT1; Human enzyme; n = 3.

The subject of data set [3] is Mycobacterium tuberculosis (H37Rv). Kind of data set: Antibacterial activity. It counts as cell-based.
The test system of another data set is MraY. To be noted: read-out: IC50 MraY.
In data set [4] the test system is Mycobacterium smegmatis (ATCC607). Description: Antibacterial activity. In kind it is cell-based.
A short description of another data set: Water-solubility. In kind it is physicochemical.
Data set [5] deals with Bacillus cereus (ATCC1479). Kind of data set: Antibacterial activity. It counts as cell-based.
The test system of data set [6] is healthy (normal) and cancer cell lines. To be noted: read-out: IC50 (rapid cytotoxic activity); within 24 h; ref 4a; cited from earlier work.

Structures are written as SMILES. Converted amounts (≈) assume the structure as drawn. A value given as a limit tells only on which side of the number the result lay.

In the case of `CC(=O)N[C@H]1[C@@H](O[C@@H]2O[C@H](C[C@@H](O)[C@H]3O[C@@H](n4ccc(=O)[nH]c4=O)[C@H](O)[C@@H]3O)[C@H](O)[C@H](O)[C@H]2NC(=O)/C=C/CCCCCCCCCC(C)C)O[C@H](CO)[C@@H](O)[C@@H]1O` [TN-V (1, synthetic), tunicamycin V], the minimum inhibitory concentration (MIC) in [1] was found to be 25.0 µg/mL (≈ 30.1 µM); in data set [3], 6.3 µg/mL (≈ 7.58 µM); in [4], 6.3 µg/mL (≈ 7.58 µM); in data set [5], 0.4 µg/mL (≈ 0.481 µM). Besides, the IC50 is 13 µM on AglH, 1.5 µM in data set [2], 2.5 µM in the data set with MraY and 0.5 to 2.5 µM in [6]. For the same molecule, the solubility in “Water-solubility” is below 200 µg/mL.

On to `CC(=O)N[C@H]1[C@@H](O[C@@H]2O[C@H](C[C@@H](O)[C@H]3O[C@@H](n4ccc(=O)[nH]c4=O)[C@H](O)[C@@H]3O)[C@H](O)[C@H](O)[C@H]2NC(=O)/C=C/CCCCCCCCCC(C)C)O[C@H](CO)[C@@H](O)[C@@H]1O` [TN-V (natural), tunicamycin V, reference compound], for which the IC50 was 13.2 µM on AglH, 1.5 µM in data set [2] and 2.9 µM in the data set with MraY.
